These results are taken from patent US8936941B2, “Compositions useful for cancer detection and treatment, a cancer stem cell model, and methods of production and use thereof” (priority 2008, dated 2015).

What all share (type): cell-based, human
Data set [1] deals with let-7 family binding sites (similar to KRAS 3' UTR). Description: KRAS-Luc luciferase reporter gene assay in AsPC-1 cells. The text has this: Luciferase Reporter Gene Assay: pLet7a-Luc reporter vector contains a let-7a miRNA specific binding site at the 3′ UTR of the firefly (Photinus pyralis) luciferase gene, pMiR-144-Luc reporter vector containing miR-144 miRNA specific binding site at the 3′UTR of the firefly luciferase gene and KRAS-Luc reporter vector containing specific binding sites for let-7 family members at the 3′UTR of the firefly luciferase gene were obtained from Signosis, Inc. (Sunnyvale, Calif.). Human pancreatic cancer cell lines were transfected with the pLet7a-Luc, pMiR-144-Luc and KRAS-Luc reporter vectors separately with Renilla luciferase expressing plasmid pRL-TK (Promega) along with DCAMKL-1, or scrambled siRNA-using siPORT™ NeoFX™ transfection reagent (Ambion, Inc.). Luciferase activity was determined as per the manufacturer's instructions (Dual Luciferase Reporter Assay System; Promega) using a BioTek Synergy HT (Winooski, Vt.) as described herein above. The activity, normalized to Renilla luciferase activity, is presented as relative luciferase units relative to control with ±SEM values. Assays were performed in triplicate wells, and experiments were repeated 3 times.

Another data set relates to DCAMKL-1. Description: siRNA knockdown of DCAMKL-1 in AsPC-1 pancreatic cancer cells, real-time RT-PCR. Particulars: AsPC-1 cells. The method, then:
Cell Culture: AsPC-1 and BxPC3 human pancreatic adenocarcinoma cell lines were obtained from the American Type Culture Collection and grown in Dulbecco's modified Eagle medium (DMEM) supplemented with 10% fetal bovine serum and 100 U/mL penicillin-streptomycin in a humidified chamber at 37° C. with 5% CO2.
Silencer RNA: DCAMKL-1 small interfering RNA (siRNA) (si-DCAMKL-1) sequence targeting the coding region of DCAMKL-1 (accession No. NM_004734; SEQ ID NO:1) ([…]tt (SEQ ID NO:3)) and scrambled siRNAs (si-Scr) not matching any of the human genes were obtained (Ambion Inc, Austin, Tex.) and transfected using siPORT™ NeoFX™ (Ambion, Inc).
Real-time Reverse Transcription-Polymerase Chain Reaction Analyses: Total RNA isolated from human pancreatic cancer cells or cells sorted from normal mouse pancreas were subjected to reverse transcription with Superscript II RNase H-Reverse Transcriptase and random hexanucleotide primers (Invitrogen, Carlsbad, Calif.). The complementary DNA (cDNA) was subsequently used to perform real-time polymerase chain reaction (PCR) by SYBR chemistry (SYBR Green I; Molecular Probes, Eugene, Oreg.) for specific transcripts using gene specific primers and Jumpstart Taq DNA polymerase (Sigma—Aldrich, St. Louis, Mo.). […] The changes in mRNA were expressed as fold change relative to control with ±SEM value.
miRNA Analysis: total RNA isolated from human pancreatic cancer cell lines or cells sorted from normal mouse pancreas was subjected to reverse transcription with Superscript II RNase H-Reverse Transcriptase and random hexanucleotide primers (Invitrogen). The cDNA was subsequently used to perform real-time PCR by SYBR chemistry (SYBR Green I; Molecular Probes) for pri-let-7a, pri-miR-144 and pri-miR-200a transcripts using specific primers and Jumpstart Taq DNA polymerase (Sigma—Aldrich). […] The changes in pri-miRNA were expressed as fold change relative to control with ±SEM values.
A general note: In qPCR the cycle at which signal appears reflects the starting amount.

A further data set relates to let-7a miRNA. Description: pLet7a-Luc luciferase reporter gene assay in HCT116 cells. To be noted: normalized to Renilla luciferase. The procedure: Luciferase reporter gene assay. pLet7a-Luc reporter vector contains a let-7a miRNA specific binding site at the 3′UTR of the firefly (Photinus pyralis) luciferase gene obtained from Signosis Inc (FIG. 26). HCT116 and SW480 cells were transfected with the pLet7a-Luc reporter vector, Renilla luciferase expressing plasmid pRL-TK (Promega) along with DCAMKL-1 or scrambled siRNA using Transfectol™ (Ambion Inc.). Luciferase activity was determined as per the manufacturer's instructions (Dual-Luciferase Reporter Assay System; Promega) using a Monolight 2010 luminometer (Analytical Luminescence Laboratory, San Diego, Calif.) as described earlier [Stadler et al., 2008; Sossey-Alaoui et al., 1999]. The activity, normalized to Renilla Luciferase activity, is presented as relative luciferase units relative to control with ±SEM values. Assays were performed in triplicate wells and experiments were repeated 3 times.
On the technique in general: Reporter assays use an easily measured gene product as a stand-in for the process of interest.

Chain of DCAMKL-1 (O15075 other isoform, or with tags, fused parts or gaps): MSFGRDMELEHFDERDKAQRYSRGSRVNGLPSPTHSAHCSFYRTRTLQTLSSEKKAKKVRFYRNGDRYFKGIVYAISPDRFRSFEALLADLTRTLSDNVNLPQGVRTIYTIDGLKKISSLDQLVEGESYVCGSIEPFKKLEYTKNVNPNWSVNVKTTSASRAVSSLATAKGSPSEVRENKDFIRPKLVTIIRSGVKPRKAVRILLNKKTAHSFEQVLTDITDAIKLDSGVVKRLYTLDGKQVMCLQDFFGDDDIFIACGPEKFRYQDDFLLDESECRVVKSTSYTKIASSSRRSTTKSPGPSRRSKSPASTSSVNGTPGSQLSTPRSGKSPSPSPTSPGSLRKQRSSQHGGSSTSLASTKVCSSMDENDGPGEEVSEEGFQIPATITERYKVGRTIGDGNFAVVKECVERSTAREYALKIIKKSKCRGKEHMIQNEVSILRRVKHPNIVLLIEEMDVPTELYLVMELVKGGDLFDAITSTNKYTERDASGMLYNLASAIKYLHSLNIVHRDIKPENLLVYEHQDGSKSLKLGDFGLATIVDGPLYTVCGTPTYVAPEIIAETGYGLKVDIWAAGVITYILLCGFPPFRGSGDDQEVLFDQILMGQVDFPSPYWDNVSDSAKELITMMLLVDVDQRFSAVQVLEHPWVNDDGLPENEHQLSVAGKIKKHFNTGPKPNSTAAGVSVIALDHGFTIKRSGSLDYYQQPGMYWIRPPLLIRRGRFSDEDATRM

Consider “si-DCAMKL-1: siRNA targeting the coding region of DCAMKL-1 (NM_004734), sequence GGGAGUGAGAACAAUCUAC (SEQ ID NO:3) (chemistry not given here; listed as Homo sapiens)”, for which the “luciferase activity (KRAS-Luc, let-7 family binding sites)” value in data set [1] is “dose-dependent reduction”. Also, in the data set with DCAMKL-1, the E-cadherin expression result is “upregulation”; the Notch-1 expression entry was “significant and a dose dependent downregulation”; the “Slug mRNA expression” value is recorded as “downregulation”; the “Snail mRNA expression” value was “downregulation”. Besides, in the data set on DCAMKL-1, the “Twist mRNA expression” value was “downregulation”; the ZEB1 expression entry was “downregulation”; the ZEB2 expression entry was “downregulation”; the c-Myc expression entry is “significant and a dose dependent downregulation”. For the same substance, in the data set with DCAMKL-1, the pri-miR-200a expression result is listed as “upregulation”. Also, in the data set on DCAMKL-1 (compared to control and siSCR), the “increase in pri-miR-144 miRNA expression” value stood at 2.5 fold and the “reduction of c-Myc mRNA expression” value is reported as 50%. In addition, in the data set on DCAMKL-1 (compared to control or siSCR), the “reduction in KRAS mRNA expression” value turned out to be 45% and the “reduction in Notch-1 mRNA” value is listed as 50%. In addition, in the data set on DCAMKL-1 (compared to siSCR or untreated), the “DCAMKL-1 mRNA expression” value is given as “decreases” and the DCAMKL-1 protein entry is reported as “decreases”. Moreover, the “induction of pri-let-7a miRNA” value in the data set with DCAMKL-1 (real-time RT-PCR) was 3 fold. Further, the “luciferase activity (let-7a binding site at 3' UTR)” value in the data set with let-7a miRNA is on record as “dose dependent reduction”.
